Experimental findings from PMC10107299, “Neutralizing the Impact of the Virulence Factor LecA from Pseudomonas aeruginosa on Human Cells with New Glycomimetic Inhibitors” (Angewandte Chemie (International Ed. in English), 2023) are described below.

For assay [1], the target named is T1, LecA (Pseudomonas aeruginosa, UniProt Q05097).
T1 construct: made in house
Description: Competitive binding assay based on fluorescence polarization. The method, then: All synthesized galactosides were then evaluated for LecA inhibition using a competitive binding assay based on fluorescence polarization (Figure S1).[24]
Expression and purification of LecA as well as competitive binding by fluorescence polarization was performed as described by Joachim et al..[9] The assay was performed in TBS/Ca2+ buffer (20 mM Tris, 137 mM NaCl, 2.6 mM KCl at pH 7.4 supplemented with 1 mM CaCl2) in presence of 25% DMSO. Averages and standard deviations were calculated from at least three independent experiments. […]
RR OR In h i b i to r [µ M ]
R R In h i b i to r [µ M ] […]
R In h i b i to r [µ M ] 30 L2
30 F2 40 K2 In h i b i to r [µ M ] […]
In h i b i to r [µ M ] In h i b i to r [µ M ]
Figure S1: Evaluation of amide divalent LecA ligands in a competitive binding assay based on fluorescence […]
representative experiment is shown or each series. Averages and standard deviations from at least three independent titrations of triplicates each.
[…] Fluorescence polarization [mP] -1 0 1 2 3 0 1001010 Me-α-Gal pNO2-Ph-β-Gal 1000 Inhibitor [µM] Fluorescence polarization [mP])

For assay [2], the target named is T1, LecA. Description: Direct binding to immobilized LecA by surface plasmon resonance (SPR). The note with it: for kon: SPR single-cycle kinetics, 25 °C, N=3 (I1 N=1); for Relative potency r.p. (SPR): compared to respective monovalent compound in each series. On the procedure:
K d values were oscillating with the number of methylene units present in the linker, presumably linked to the zig‐zag geometry of the hydrocarbon chain.
Expression and purification of LecA as well as competitive binding by fluorescence polarization was performed as described by Joachim et al..[9] […]
Surface plasmon resonance experiments were performed on a BIACORE X100 instrument (GE Healthcare) at 25 °C as described by Zahorska et. al..[8] Averages and standard deviations were calculated from three independent experiments. […]
Figure S3: SPR of divalent LecA ligands from benzene series. Sensorgrams obtained from SPR single-cycle kinetics experiments. Five different concentrations of each compound (0, 10, 50, 100, 200 nM) were sequentially injected to obtain the experimental sensorgrams (blue lines), which were then fitted by a 1:1 model (orange) on BIACORE evaluation software. […]
Figure S4: SPR of divalent LecA ligands from pyridine and sulfonated series. Sensorgrams obtained from SPR single-cycle kinetics experiments. Five different concentrations of each compound (0, 10, 50, 100, 200 nM) were sequentially injected to obtain the experimental sensorgrams (blue lines), which were then fitted by a 1:1 model (orange) on BIACORE evaluation software.
(also on this page, place not known: Response (RU)0 Response (RU)0 Response (RU) Response (RU) Response (RU) Response (RU) 030060090012001500) […]
Background: Surface plasmon resonance follows binding to a sensor surface in real time, without labels.

Read-outs that look alike come from different tables or passages of the source.

T1 sequence (Q05097 whole entry): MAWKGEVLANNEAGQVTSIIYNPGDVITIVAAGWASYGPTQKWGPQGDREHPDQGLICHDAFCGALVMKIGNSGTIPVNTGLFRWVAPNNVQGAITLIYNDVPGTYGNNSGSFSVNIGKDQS

The term IC50 denotes the concentration that gives 50% inhibition. What is called Kd is the constant that tells how readily two partners part at equilibrium. A high value points to a looser complex. The koff is the rate constant with which the complex falls apart. As a reminder, the kon is a measure of how fast the partners come together. Low values mean slower complex formation, high ones faster complex formation. Compound `O=C(/C=C/c1ccc(O[C@@H]2O[C@H](CO)[C@H](O)[C@H](O)[C@H]2O)cc1)Nc1ccc(OCCCOc2ccc(NC(=O)/C=C/c3ccc(O[C@@H]4O[C@H](CO)[C@H](O)[C@H](O)[C@H]4O)cc3)cn2)nc1` [Compound I1] registered a half-maximal inhibitory concentration (IC50) at LecA [1] of 6.6 ± 4 µM. Also, at LecA [2], the Kd worked out at 0.0402 µM, the off-rate (koff) amounted to 0.00227 s⁻¹, the kon came to 68200 M⁻¹ s⁻¹ and the “Relative potency r.p. (SPR)” value is reported as 74.
Taken in the same sequence, the figures for `O=C(/C=C/c1ccc(O[C@@H]2O[C@H](CO)[C@H](O)[C@H](O)[C@H]2O)cc1)Nc1ccc(OCCCCOc2ccc(NC(=O)/C=C/c3ccc(O[C@@H]4O[C@H](CO)[C@H](O)[C@H](O)[C@H]4O)cc3)cc2)cc1` [Compound F1] were 7.9 ± 4.8 µM, 2.25 ± 0.3 µM, 0.00388 ± 0.00043 s⁻¹, 1.75 ± 0.3 x10^3/Ms and 2.
Taken in the same sequence, the figures for `O=C(/C=C/c1ccc(O[C@@H]2O[C@H](CO)[C@H](O)[C@H](O)[C@H]2O)cc1)Nc1ccc(OCCCOc2ccc(NC(=O)/C=C/c3ccc(O[C@@H]4O[C@H](CO)[C@H](O)[C@H](O)[C@H]4O)cc3)cc2)cc1` [Compound E1] were 4.5 ± 1.6 µM, 0.156 ± 0.038 µM, 0.00251 ± 0.00022 s⁻¹, 16.9 ± 5.2 x10^3/Ms and 33.
Taken in the same sequence, the figures for `O=C(/C=C/c1ccc(O[C@@H]2O[C@H](CO)[C@H](O)[C@H](O)[C@H]2O)cc1)Nc1ccc(Oc2ccc(NC(=O)/C=C/c3ccc(O[C@@H]4O[C@H](CO)[C@H](O)[C@H](O)[C@H]4O)cc3)cc2)cc1` [Compound B1] were 6.6 ± 1.5 µM, 0.0673 ± 0.0094 µM, 0.00596 ± 0.00206 s⁻¹, 89 ± 29 x10^3/Ms and 77.
In turn, `O=C(CCc1ccc(O[C@@H]2O[C@H](CO)[C@H](O)[C@H](O)[C@H]2O)cc1)Nc1ccc(Oc2ccc(NC(=O)CCc3ccc(O[C@@H]4O[C@H](CO)[C@H](O)[C@H](O)[C@H]4O)cc3)cc2)cc1` [Compound B2] gave an IC50 at LecA [1] of 3.6 ± 1.3 µM. Moreover, on LecA [2], the Kd was determined as 0.0221 ± 0.0003 µM, the koff is 0.00349 ± 8e-05 s⁻¹, the on-rate constant (kon) is listed as 158 ± 5.7 x10^3/Ms and the “Relative potency r.p. (SPR)” value was found to be 244.
At LecA [1], `COc1ccc(NC(=O)/C=C/c2ccc(O[C@@H]3O[C@H](CO)[C@H](O)[C@H](O)[C@H]3O)cc2)cc1` [Compound A1] yielded a concentration for half-maximal inhibition (IC50) of 18.8 ± 6.6 µM. On LecA [2], the Kd is 5.21 ± 0.6 µM and the “Relative potency r.p. (SPR)” value turned out to be 1.
The compound `O=C(CCc1ccc(O[C@@H]2O[C@H](CO)[C@H](O)[C@H](O)[C@H]2O)cc1)Nc1ccc(OCCCOc2ccc(NC(=O)CCc3ccc(O[C@@H]4O[C@H](CO)[C@H](O)[C@H](O)[C@H]4O)cc3)cc2)cc1` [Compound E2] returned an IC50 on LecA [1] of 3.5 ± 1 µM. Moreover, at LecA [2], binding was put at a Kd of 0.0185 ± 0.0015 µM, the dissociation rate constant (koff) is 0.00345 ± 0.00013 s⁻¹, the kon is 187 ± 13 x10^3/Ms and the “Relative potency r.p. (SPR)” value worked out at 291.
For the compound `O=C(CCc1ccc(O[C@@H]2O[C@H](CO)[C@H](O)[C@H](O)[C@H]2O)cc1)Nc1ccc(OCCCCOc2ccc(NC(=O)CCc3ccc(O[C@@H]4O[C@H](CO)[C@H](O)[C@H](O)[C@H]4O)cc3)cc2)cc1` [Compound F2], on LecA [1], the IC50 turned out to be 4.4 ± 1.5 µM. On LecA [2], binding was characterised by a dissociation constant (Kd) of 0.0231 ± 0.011 µM, the koff turned out to be 0.00366 ± 0.00042 s⁻¹, the kon was 175 ± 55 x10^3/Ms and the “Relative potency r.p. (SPR)” value is reported as 233.
Take `O=[N+]([O-])c1ccc(O[C@@H]2O[C@H](CO)[C@H](O)[C@H](O)[C@H]2O)cc1` [pNO2-Ph-β-Gal, reference compound]: on LecA [1] (TBS/Ca2+ buffer, 25% DMSO, divalent ligands at lower assay limit, read-out: IC50 (LecA competitive binding, fluorescence polarization)), the half-inhibitory concentration (IC50) was 39.8 ± 12 µM.
In turn, `O=C(CCc1ccc(O[C@@H]2O[C@H](CO)[C@H](O)[C@H](O)[C@H]2O)cc1)Nc1ccc(OCOc2ccc(NC(=O)CCc3ccc(O[C@@H]4O[C@H](CO)[C@H](O)[C@H](O)[C@H]4O)cc3)cc2)cc1` [Compound C2] yielded an IC50 on LecA [1] of 4.2 ± 1.7 µM. Also, on LecA [2], binding was put at a Kd of 0.0153 ± 0.0006 µM, the koff is 0.00462 ± 0.0002 s⁻¹, the kon is 303 ± 20 x10^3/Ms and the “Relative potency r.p. (SPR)” value came out at 352.
Taken in the same sequence, the figures for `O=C(/C=C/c1ccc(O[C@@H]2O[C@H](CO)[C@H](O)[C@H](O)[C@H]2O)cc1)Nc1ccc(OCOc2ccc(NC(=O)/C=C/c3ccc(O[C@@H]4O[C@H](CO)[C@H](O)[C@H](O)[C@H]4O)cc3)cc2)cc1` [Compound C1] were 4.7 ± 2.6 µM, 0.0377 ± 0.011 µM, 0.00379 ± 0.00089 s⁻¹, 110 ± 52 x10^3/Ms and 138.
In turn, `COc1ccc(NC(=O)CCc2ccc(O[C@@H]3O[C@H](CO)[C@H](O)[C@H](O)[C@H]3O)cc2)cc1` [Compound A2] came in with an IC50 on LecA [1] of 18.9 ± 5.5 µM. Moreover, on LecA [2], binding was characterised by a dissociation constant (Kd) of 5.38 ± 0.09 µM and the “Relative potency r.p. (SPR)” value was determined as 1.
